Measurements as given in BindingDB's records for PubMed 32771797 (Southern Medical University, 2020).

Test: Inhibition of Severe acute respiratory syndrome coronavirus 2 MPro incubated for 24 hrs by plaque assay

Question: With O=C[C@H](C[C@@H]1CCNC1=O)NC(=O)[C@H](Cc1cccc(F)c1)NC(=O)c1cc2ccccc2[nH]1 [med.21724, Compound 62] as the molecule, how does the EC50 read?
Answer: 720 nM
